Reference: article PMC8000760, “Potential Effect of Pseudevernia furfuracea (L.) Zopf Extract and Metabolite Physodic Acid on Tumour Microenvironment Modulation in MCF-10A Cells” (Biomolecules, 2021)

Tests used:
[1] = system: MCF-10A cells; assay: Flow cytometry cell cycle phase distribution; type: cell-based, human
Protocol: (§1) The MCF-10A and BJ-5ta cells were seeded and cultivated for 24 h in a complete medium. One day after seeding, 30 ng/mL of TGF-β was added and cultivated for 7 days (d). TGF-β was added to induce epithelial–mesenchymal transition in tested cell lines. Lichen extract P. furfuracea (L.) Zopf and its metabolite physodic acid were added at time 0 h and then incubated for 24, 48 and 72 h for various analyses, as described in Figure 1.
The MCF-10A cells (1 × 10^4/well) were seeded in Petri dishes and stimulated with […] TGF-β for 7 days. […] After detaching, using Trypsin/EDTA, cells were harvested and pelleted by centrifugation at 1200 rpm for 5 min. Pellet was re-suspended in PBS and divided for a particular analysis. Cells were stained prior to analyses with E-Cadherin Mouse mAb (Alexa Fluor 488 conjugate) or N-cadherin Rabbit mAb (Alexa Fluor 647 conjugate) (Cell Signalling) for 15 min at RT in the dark. For the cell cycle analyses, cells were re-suspended in staining solution (final concentration 0.1% Triton X-100, 0.5 mg/mL ribonuclease A and 0.025 mg/mL propidium iodide (PI)), and incubated in the dark at RT for 30 min. All samples were analysed using a FACS Calibur flow cytometer (Becton Dickinson, San Jose, CA, USA). The IgG isotype control checking was performed for every used antibody.

[2] = system: fibronectin in TGF-β-stimulated MCF-10A cells; assay: Fibronectin expression, Western blot; type: cell-based, human; conditions: IC10 and IC50, dose-dependent manner
Protocol: as §1
Proteins isolated from MCF-10A and BJ-5ta cell lysates were determined by the Pierce® BCA Protein Assay Kit (Thermo Scientific, Rockford, IL, United States), using bovine serum albumin (BSA) as the standard, and measured by an automated Cytation™ 3 Cell Imaging Multi-Mode Reader (Biotek) at a wavelength of 570 nm. Proteins were separated on SDS-PAA gel (12%) at 100 V for 2 h and then transferred to a polyvinylidene difluoride (PVDF) membrane using the iBlot dry blotting system (Thermo Scientific, Rockford, IL, United States). […] After incubation, the membrane was again washed in TBS-Tween (3 × 5 min), and the expression of the protein was detected using a chemiluminescent ECL substrate (Thermo Fisher Scientific) and MF-ChemiBIS 2.0 Imaging System (DNR BIO-Imaging Systems, Jerusalem, Israel). The detected band was then analysed densitometrically using the Image Studio Lite software (LI-COR Biosciences, Lincoln, NE, USA). […]

[3] = 24 h, IC10, in the presence of 30 ng/mL TGF-β
[4] = 24 h, treatment alone (IC10 of PSE/Phy, or TGF-β 30 ng/mL)
[5] = 48 h, IC10, in the presence of 30 ng/mL TGF-β
[6] = 48 h, treatment alone (IC10 of PSE/Phy, or TGF-β 30 ng/mL)
[7] = 72 h, IC10, in the presence of 30 ng/mL TGF-β
[8] = 72 h, treatment alone (IC10 of PSE/Phy, or TGF-β 30 ng/mL)

## CCCCCC(=O)Cc1cc(O)cc2c1C(=O)Oc1cc(O)c(C(=O)O)c(CCCCC)c1O2 [Phy, physodic acid]
[1]; [3]
  G1 cell cycle phase distribution: 73.45 ± 0.69
  G2/M cell cycle phase distribution: 13.25 ± 2.08
  S cell cycle phase distribution: 12.20 ± 2.69
  Sub G0 cell cycle phase distribution: 1.10 ± 0.07
[1]; [4]
  G1 cell cycle phase distribution: 73.25 ± 0.37
  G2/M cell cycle phase distribution: 13.85 ± 0.61
  S cell cycle phase distribution: 12.05 ± 0.86
  Sub G0 cell cycle phase distribution: 0.86 ± 0.12
[1]; [5]
  G1 cell cycle phase distribution: 89.05 ± 1.18^Δ
  G2/M cell cycle phase distribution: 5.78 ± 1.16
  S cell cycle phase distribution: 3.36 ± 0.27
  Sub G0 cell cycle phase distribution: 1.82 ± 0.24
[1]; [6]
  G1 cell cycle phase distribution: 88.15 ± 0.53
  G2/M cell cycle phase distribution: 5.06 ± 1.00
  S cell cycle phase distribution: 4.23 ± 0.48
  Sub G0 cell cycle phase distribution: 2.54 ± 0.04
[1]; [7]
  G1 cell cycle phase distribution: 89.75 ± 0.86^Δ
  G2/M cell cycle phase distribution: 4.34 ± 1.27^Δ
  S cell cycle phase distribution: 3.14 ± 0.52
  Sub G0 cell cycle phase distribution: 2.77 ± 0.94
[1]; [8]
  G1 cell cycle phase distribution: 88.50 ± 1.14
  G2/M cell cycle phase distribution: 3.99 ± 0.80
  S cell cycle phase distribution: 5.45 ± 2.26
  Sub G0 cell cycle phase distribution: 2.06 ± 0.35
[1]; IC10, absence or presence of TGF-β 30 ng/mL, 24, 48 and 72 h
  cell cycle phase distribution versus control or TGF-β alone: no significant differences
[2]
  levels of fibronectin, Western blot: downregulated
